Results reported in ChEMBL document CHEMBL1201862, “PubChem BioAssay data set” (2004).
Where “and” joins values, the source holds several entries; their conditions need not be identical. Equal values may be shown once.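 48-hour exposure; five concentrations; linearly interpolated endpoints. The concentration for 50% growth inhibition is given as GI50.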 Calls of active or inactive are those of the source. Rule as the data show it: active = GI50 up to about 1.1 µM and inactive = higher.

How the values were obtained:
Assay in all cases: NCI tumour cell line growth inhibition, 48 h
[1] = system: UO-31
[2] = system: HOP-92
[3] = system: RPMI-8226
[4] = system: SF-268
[5] = system: SK-MEL-5
[6] = system: SK-MEL-2
[7] = system: SN12C
[8] = system: OVCAR-8
[9] = system: HOP-62
[10] = system: HL-60
[11] = system: CAKI-1
[12] = system: OVCAR-4
[13] = system: NCI-H23
[14] = system: U-251
[15] = system: HCC 2998
[16] = system: HT-29
[17] = system: MCF7
[18] = system: TK-10
[19] = system: Malme-3M
[20] = system: SR

Measured: GI50

CC1C(=O)C(C)C(c2cccs2)N(N=O)C1c1cccs1 (configuration not stated)
inactive: [1] > 100 µM | [2] 68.5 µM | [3] > 100 µM | [4] > 100 µM | [5] > 100 µM | [6] > 89.9 µM | [7] > 100 µM | [8] > 100 µM | [9] > 100 µM | [10] > 100 µM | [11] > 100 µM | [12] > 100 µM | [13] > 100 µM | [14] > 100 µM | [15] > 100 µM | [16] > 35 µM | [17] > 100 µM

COC(=O)[C@@H]1O[C@]12[C@@H](CO[Si](C)(C)C(C)(C)C)O[C@@H](n1cc(C)c(=O)[nH]c1=O)[C@@H]2O[Si](C)(C)C(C)(C)C
inactive: [18] 45 µM | [19] 21.6 µM | [4] 15.4 µM | [5] 19.7 µM | [6] 15 µM | [7] 13.8 µM | [8] 15.3 µM | [9] 26.2 µM | [10] 3.12 µM | [11] 23.4 µM | [12] 32.5 µM | [13] 15.8 µM | [14] 12.3 µM | [16] 6.11 µM

COc1cc(C2C(C(=O)O)=C(COC(C)=O)Oc3cc4c(cc32)OCO4)cc(OC)c1OC (configuration not stated)
inactive: [18] > 100 µM | [1] > 100 µM | [19] > 100 µM | [3] > 100 µM | [5] > 100 µM | [6] > 100 µM | [7] > 100 µM | [8] > 100 µM | [9] > 100 µM | [10] > 100 µM | [11] > 100 µM | [12] > 100 µM | [13] > 100 µM | [14] > 100 µM | [16] > 100 µM

O=C1CCCC(=O)N1CCc1c[nH]c2ccccc12
inactive: [18] > 100 µM | [1] > 100 µM | [2] > 100 µM | [19] > 100 µM | [4] > 100 µM | [5] > 100 µM | [6] > 100 µM | [7] > 100 µM | [8] > 100 µM | [9] > 100 µM | [10] > 100 µM | [11] > 100 µM | [12] > 100 µM | [20] > 100 µM | [13] > 100 µM | [14] > 100 µM | [15] > 100 µM | [16] > 100 µM

COc1cc(NC(C)CCCN)c2ncccc2c1 (configuration not stated) [PRIMAQUINE PHOSPHATE]
inactive: [18] 49.8 µM and > 94.4 µM | [3] 42.8 µM and 22.6 µM | [4] 94.4 µM and 79.3 µM | [5] 29.8 µM and 17.8 µM | [6] 26.9 µM and 45.1 µM | [8] 70.6 µM and 63.1 µM | [10] 8.17 µM and 10.4 µM | [11] 59 µM and 62.4 µM | [12] > 88.3 µM | [13] > 100 µM and > 90.6 µM | [15] 28.2 µM and 16.9 µM | [16] 37.1 µM and 28.8 µM | [17] 16.4 µM

O=NN1CCN=C1c1ccc([N+](=O)[O-])cc1
inactive: [18] > 100 µM | [1] 66.2 µM | [2] > 100 µM | [19] > 100 µM | [3] > 100 µM | [4] > 100 µM | [5] > 100 µM | [7] > 100 µM | [8] > 100 µM | [9] > 100 µM | [10] > 100 µM | [11] > 100 µM | [12] > 100 µM | [20] > 100 µM | [13] > 100 µM | [14] > 100 µM | [15] > 100 µM | [16] > 100 µM

CCCCCCCCC(O)c1ccc(/C=C\C(O)CCCC(=O)O)s1 (configuration not stated)
inactive: [18] > 100 µM | [1] > 100 µM | [2] > 100 µM | [19] > 100 µM | [3] > 100 µM | [4] > 100 µM | [5] > 100 µM | [6] > 100 µM | [7] > 100 µM | [8] > 100 µM | [10] > 100 µM | [12] > 100 µM | [20] > 100 µM | [13] > 100 µM | [14] > 100 µM | [15] > 100 µM | [16] > 100 µM

CC(C)(C)N1C(C(=O)c2ccccc2)C1c1ccccc1 (configuration not stated)
inactive: [18] > 100 µM | [2] > 100 µM | [3] > 100 µM | [5] > 100 µM | [7] > 100 µM | [8] > 100 µM | [9] > 100 µM | [10] > 100 µM | [12] > 100 µM | [13] > 100 µM | [14] > 100 µM | [15] > 100 µM | [16] > 100 µM

COc1ccccc1C1C(Cl)C(=O)N1n1cnc2ccccc2c1=O (configuration not stated)
inactive: [18] > 100 µM | [1] 45.6 µM | [19] > 100 µM | [3] > 100 µM | [4] > 100 µM | [5] > 100 µM | [6] > 100 µM | [7] > 100 µM | [8] > 100 µM | [9] > 100 µM | [10] > 100 µM | [11] > 100 µM | [12] > 100 µM | [20] 85.9 µM | [13] > 100 µM | [14] 48.3 µM | [15] > 100 µM | [16] > 100 µM

Cc1nc2c(sc(=S)n2-c2ccccc2)c(=O)[nH]1
inactive: [18] > 100 µM | [1] > 100 µM | [2] > 100 µM | [19] > 100 µM | [3] > 100 µM | [4] > 100 µM | [5] > 100 µM | [6] > 100 µM | [8] > 100 µM | [9] > 100 µM | [10] > 100 µM | [20] > 100 µM | [13] > 100 µM | [14] > 100 µM | [15] > 100 µM | [16] > 100 µM

c1c2c(cc(-n3nnc4c3CCCCCC4)c1-n1nnc3c1CCCCCC3)CCCCCC2
inactive: [18] 12.6 µM | [1] 5.4 µM | [2] 3.28 µM | [4] 9.46 µM | [5] 11.7 µM | [6] 13.1 µM | [7] 10.8 µM | [8] 12.7 µM | [9] 17.8 µM | [10] 3.8 µM | [11] 2.12 µM | [20] 3.54 µM | [13] > 10 µM | [14] 10.1 µM | [15] 12.8 µM | [16] 6.93 µM

Fc1ccccc1C1CC(C(c2ccccc2)c2ccccc2)=Nc2ccccc2S1 (configuration not stated)
inactive: [18] 10.7 µM | [1] 14 µM | [19] 16 µM | [3] 3.6 µM | [4] 11.4 µM | [5] 11.2 µM | [6] 7.89 µM | [7] 10.2 µM | [8] 7.71 µM | [9] 12.6 µM | [10] 2.55 µM | [11] 6.25 µM | [12] 10.9 µM | [13] 5.89 µM | [14] 12.6 µM | [15] 5.35 µM | [16] 5.61 µM
